Results published in patent publication EP0210342A2, “Medicament containing pyridinones having an antithrombotic activity” (Dr. Karl Thomae GmbH, priority 1985, dated 1987).

How the values were obtained:
[1] = test system: Thrombusbildung; test: Stenosis-induced spontaneous coronary thrombus formation in anaesthetised dogs (shake loose, Folts); assay type: in vivo, Hunde; conditions: for Verminderung der Häufigkeit der Spontanverschlüsse: 1 mg/kg i.v.; for antithrombotische Wirkung: 1 mg/kg
[2] = Acute toxicity in mice (LD50, 14 days observation); parameters: species or system Mäusen; conditions: mouse, in vivo, observation 14 days
From the text: Die akute Toxizität der zu untersuchenden Substanzen wurde an Mäusen (Beobachtungszeit: 14 Tage) nach oraler bzw. intravenöser Gabe bestimmt. Es wurde die LD₅₀ aus dem Prozentsatz der Tiere berechnet, die nach verschiedenen Dosen innerhalb der Beobachtungszeit verstarben: […]

COc1ccc2nc(-c3ccc(OCC(O)CNC(C)(C)C)cc3)n(C)c(=O)c2c1 (single isomer, unassigned; (-)) [Verbindung C, (-)-2-2[4-(2-Hydroxy-3-tert.butylamino-propoxy)-phenyl]-3-methyl-6-methoxy-3,4-dihydro-chinazolin-4-on]
Verminderung der Häufigkeit der Spontanverschlüsse ([1]; 30th to 60th minute after substance): 73% | Verminderung der Häufigkeit der Spontanverschlüsse ([1]; first 30 min after substance): 55%

CC(C)NCC(O)COc1ccc(CC(N)=O)cc1 (stereo not drawn) [Atenolol, reference compound]
antithrombotische Wirkung [1]: nicht antithrombotisch

CC(C)NCC(O)COc1cccc2ccccc12 (stereo not drawn) [Propranolol, reference compound]
antithrombotische Wirkung [1]: nicht antithrombotisch

COc1ccc2nc(-c3ccc(OCC(O)CNC(C)(C)C)cc3)n(C)c(=O)c2c1 (stereo not drawn) [Verbindung B, 2-[4-(2-Hydroxy-3-tert.butylamino-propoxy)-phenyl]-3-methyl-6-methoxy-3,4-dihydro-chinazolin-4-on]
LD50 at 336 h ([2]; iv): 75 mg/kg | LD50 at 336 h ([2]; po): 750 mg/kg
